Experimental data published in ChEMBL document CHEMBL3621146, “Design of Potent and Orally Active GPR119 Agonists for the Treatment of Type II Diabetes” (ACS Med Chem Lett, 2015).

Experiments:
[1] = Fraction unbound in rat plasma; type: ADME, cell-free
Rattus norvegicus = test: Unbound volume of distribution in Wistar Han rat at 0.5 mg/kg, iv LC-MS/MS method; type: ADME, organism-based; conditions: in vivo
[2] = Intrinsic clearance in rat liver microsomes; type: ADME; conditions: read-out: CLH
[3] = Volume of distribution in Wistar Han rat at 0.5 mg/kg, iv LC-MS/MS method; type: ADME, organism-based; conditions: Wistar Han, in vivo
[4] = biological target: T1, Glucose-dependent insulinotropic receptor (Homo sapiens) (UniProt Q8TDV5); test: Agonist activity at human GPR119 by cAMP assay relative to control; type: functional; set-up: concentration or dose not given beside the values
T1 sequence (whole entry): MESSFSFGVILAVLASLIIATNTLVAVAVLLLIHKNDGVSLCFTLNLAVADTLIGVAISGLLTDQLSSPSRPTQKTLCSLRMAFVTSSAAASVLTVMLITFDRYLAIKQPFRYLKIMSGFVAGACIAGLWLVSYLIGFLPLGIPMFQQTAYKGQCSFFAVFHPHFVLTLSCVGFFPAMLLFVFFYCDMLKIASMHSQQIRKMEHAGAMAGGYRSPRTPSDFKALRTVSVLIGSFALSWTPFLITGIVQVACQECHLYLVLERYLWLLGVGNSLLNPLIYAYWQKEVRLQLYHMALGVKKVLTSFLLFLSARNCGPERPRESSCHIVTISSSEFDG

[5] = Clearance in Wistar Han rat at 0.5 mg/kg, iv LC-MS/MS method; type: ADME, organism-based; conditions: in vivo
[6] = Half life in Wistar Han rat at 0.5 mg/kg, iv LC-MS/MS method; type: ADME, organism-based; conditions: Wistar Han, in vivo
[7] = biological target: T2, Glucose-dependent insulinotropic receptor (Mus musculus, UniProt Q7TQP3); test: Agonist activity at mouse GPR119 by cAMP assay; type: functional
T2 sequence (Q7TQP3 whole entry): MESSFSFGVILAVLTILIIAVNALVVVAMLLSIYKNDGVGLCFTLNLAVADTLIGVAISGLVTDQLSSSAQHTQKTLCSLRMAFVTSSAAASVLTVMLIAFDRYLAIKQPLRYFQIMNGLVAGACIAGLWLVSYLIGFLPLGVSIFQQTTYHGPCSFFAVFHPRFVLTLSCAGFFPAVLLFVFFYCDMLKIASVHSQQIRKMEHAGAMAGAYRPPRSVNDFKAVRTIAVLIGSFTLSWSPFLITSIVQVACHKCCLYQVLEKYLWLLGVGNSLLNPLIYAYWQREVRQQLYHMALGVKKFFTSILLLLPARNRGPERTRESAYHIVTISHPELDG

[8] = Lipophilicity, logD of the compound at pH 7 by HPLC method; type: physicochemical; conditions: buffer
[9] = biological target: T3, Glucose-dependent insulinotropic receptor (Homo sapiens, UniProt Q8TDV5); test: Agonist activity at human GPR119 expressed in CHO cells by cAMP assay; type: functional, cell-based
T3 sequence (Q8TDV5 whole entry): T1 sequence (whole entry)

[10] = biological target: T4, Glucose-dependent insulinotropic receptor (Mus musculus) (UniProt Q7TQP3); test: Agonist activity at mouse GPR119 by cAMP assay relative to control; type: functional; set-up: concentration or dose not given beside the values
T4 sequence (whole entry): T2 sequence (Q7TQP3 whole entry)

CS(=O)(=O)c1ccc(COC[C@@H]2C[C@@H]2C2CCN(c3ncc(Cl)cn3)CC2)nc1
fraction unbound [1]: 0.016 | Vdu (Rattus norvegicus): 81 L/kg | CLint scaled [2]: 553 mL/min/kg | Vd [3]: 1.3 L/kg | Activity [4]: 53% | clearance [5]: 9 mL/min/kg | half-life [6]: 1.8 h | EC50 [7]: 3.6 nM | logD [8]: 3.7 | EC50 [9]: 8.7 nM | Activity [10]: 56%
